# Experimental data from patent US20210401880A1, “Pharmaceutical Composition For Preventing Or Treating Obesity, Containing CYCLO(HIS-PRO) As Active Ingredient” (Novmetapharma Co., Ltd., priority 2018, published 2021).
# Experiments:
# Assay type in all cases: in vivo, human
# [1] = system: glycated hemoglobin (HbA1c); experiment: Clinical trial: change in concentration of glycated hemoglobin (HbA1c) over 12 weeks
# Protocol: (§1) We conducted a clinical trial designed as randomized, placebo-controlled, double-blind, and two-way crossover on drug interaction in patients with type 2 diabetes mellitus. The clinical trial was conducted for 149 patients over a total of 16 weeks, in which the screening period was 2 weeks, the treatment period was 12 weeks, and the period of the evaluation of safety and follow-up was 2 weeks.
# (§2) In the screening stage, 64 subjects were selected from 149 participants, and the subjects who met the selection criteria were fasted for 2 hours before and after breakfast each day and subjected to a 2-week evaluation process of measuring and recording blood glucose levels. In the treatment stage, capsules containing placebo or CHP with different doses were randomly administered to 64 selected subjects once a day for 12 consecutive weeks.
# (§3) In the above experiment, a capsule containing CHP with a different dose or a placebo corresponding thereto was used, and each subject received a two-week dose (18 capsules=14+4) at one visit and was instructed to take 1 capsule before bedtime every day. In this case, the anti-diabetic drugs and other prescribed drugs currently being used were continuously taken. Each subject was assigned at the same rate as follows and administered with a placebo or a compound with a different dose, respectively. • Administration Group A: 3 mg of CHP+23 mg of zinc—16 subjects • Administration Group B: 9 mg of CHP+23 mg of zinc—16 subjects • Administration Group C: 15 mg of CHP+23 mg of zinc—16 subjects • Administration Group D: placebo (control)—16 subjects
# The present inventors observed the change in concentration of HbA1c during the 12-week dosing period. Since the blood glucose level measured at one time point can change due to various factors, the change in glycated hemoglobin (HbA1c) was checked for the purpose of determining the pattern of long-term glycemic control, and the results are shown in Table 1 and FIG. 1.
# [2] = Clinical trial: change in body weight over 12 weeks
# Protocol: as §1, §2, §3
# The present inventors observed the change in body weight of subjects through the 12-week experiment, and the results are shown in Table 2 and FIG. 2.
# [3] = Clinical trial: improvement of body mass index (BMI)
# Protocol: as §1, §2, §3
# (§4) The present inventors confirmed the improvement of body mass index (BMI) and the improvement of leptin resistance, and the results are shown in Tables 3 and 4.
# leptin = experiment: Clinical trial: plasma leptin level (leptin resistance)
# Protocol: as §1, §2, §3, §4
# Leptin is an appetite suppressing protein secreted from adipose cells, and is known as a hormone to act on the brain after being secreted from adipose tissue to suppress appetite and activate metabolism in the body, thereby reducing body weight. In the case of humans, the more obese people (the more adipose tissue), the higher the concentration of leptin in the blood. This indicates the resistance to leptin action.
# [4] = system: patients with type 2 diabetes mellitus; experiment: Clinical trial: evaluation of safety; details: CHP administration groups (3, 9, 15 mg of CHP+23 mg of zinc once a day, 12 weeks) vs placebo
# Protocol: as §1, §2
# In the above experiment, a capsule containing CHP with a different dose or a placebo corresponding thereto was used, and each subject received a two-week dose (18 capsules=14+4) at one visit and was instructed to take 1 capsule before bedtime every day. In this case, the anti-diabetic drugs and other prescribed drugs currently being used were continuously taken. […]
# [5] = Administration Group A: 3 mg of CHP+23 mg of zinc once a day
# [6] = Administration Group A: 3 mg of CHP+23 mg of zinc once a day, Week 12
# [7] = Administration Group B: 9 mg of CHP+23 mg of zinc once a day
# [8] = Administration Group B: 9 mg of CHP+23 mg of zinc once a day, Baseline (Week 0)
# [9] = Administration Group B: 9 mg of CHP+23 mg of zinc once a day, Week 12
# [10] = Administration Group C: 15 mg of CHP+23 mg of zinc once a day
# [11] = Administration Group C: 15 mg of CHP+23 mg of zinc once a day, Baseline (Week 0)
# [12] = Administration Group C: 15 mg of CHP+23 mg of zinc once a day, Week 12
# [13] = all patient groups receiving CHP (3, 9, 15 mg+23 mg of zinc), 12 weeks
# [14] = Administration Group A: 3 mg of CHP+23 mg of zinc once a day, Baseline (Week 0)
smiles,measurement,setting,value
"O=C1NC(Cc2c[nH]cn2)C(=O)N2CCCC12 (centres unmarked) [CHP, cyclo(his-pro)]","HbA1c, Change Value (From Week 0 to Week 12), Average",[1]; [5],−0.21%
same,level of HbA1c at week 12 versus Administration Group D (control),[1]; [5],lower than that of Administration Group D
same,"HbA1c, Average","[1]; Administration Group A: 3 mg of CHP+23 mg of zinc once a day, Baseline (Week 0), type 2 diabetes patients",8.25%
same,"HbA1c, Average",[1]; [6],8.04%
same,"HbA1c, Change Value (From Week 0 to Week 12), Average",[1]; [7],−0.17%
same,level of HbA1c at week 12 versus Administration Group D (control),[1]; [7],lower than that of Administration Group D
same,"HbA1c, Average",[1]; [8],8.06%
same,"HbA1c, Average",[1]; [9],7.90%
same,"HbA1c, Change Value (From Week 0 to Week 12), Average",[1]; [10],−0.43%
same,level of HbA1c over time (FIG. 1),[1]; [10],reduced consistently until week 8
same,"HbA1c, Average",[1]; [11],8.49%
same,"HbA1c, Average",[1]; [12],8.08%
same,level of HbA1c compared to the control,[1]; [13],reduced compared to the control
same,"Body weight, Change Value (From Week 0 to Week 12), Average",[2]; [5],-0.73 kg
same,"Body weight, Average",[2]; [14],109.11 kg
same,"Body weight, Average",[2]; [6],108.28 kg
same,"Body weight, Average",[2]; [8],103.56 kg
same,"Body weight, Average",[2]; [9],105.19 kg
same,"Body weight, Change Value (From Week 0 to Week 12), Average",[2]; [10],-0.92 kg
same,body weight over time (FIG. 2),[2]; [10],reduced consistently until week 12
same,"Body weight, Average",[2]; [11],103.94 kg
same,"Body weight, Average",[2]; [12],104.12 kg
same,weight gain / body weight compared to the control,[2]; [13],"less than the control, or the body weight was reduced"
same,"Body mass index (BMI), Change Value (From Week 0 to Week 12), Average",[3]; [5],−0.27 kg/m^2
same,"Body mass index (BMI), Average",[3]; [14],37.18 kg/m^2
same,"Body mass index (BMI), Average",[3]; [6],36.45 kg/m^2
same,"Body mass index (BMI), Change Value (From Week 0 to Week 12), Average",[3]; [7],0.16 kg/m^2
same,"Body mass index (BMI), Average",[3]; [8],36.29 kg/m^2
same,"Body mass index (BMI), Average",[3]; [9],36.59 kg/m^2
same,"Body mass index (BMI), Change Value (From Week 0 to Week 12), Average",[3]; [10],−0.28 kg/m^2
same,"Body mass index (BMI), Average",[3]; [11],37.23 kg/m^2
same,"Body mass index (BMI), Average",[3]; [12],37.48 kg/m^2
same,"Plasma leptin level, Change Value (From Week 0 to Week 12), Average",leptin; [5],0.59
same,"Plasma leptin level, Average",leptin; [14],10.93
same,"Plasma leptin level, Average",leptin; [6],9.66
same,"Plasma leptin level, Change Value (From Week 0 to Week 12), Average",leptin; [7],−3.42
same,plasma leptin level at week 12 compared to the reference value,leptin; [7],reduced to a statistically significant level
same,"Plasma leptin level, Average",leptin; [8],19.85
same,"Plasma leptin level, Average",leptin; [9],9.90
same,"Plasma leptin level, Change Value (From Week 0 to Week 12), Average",leptin; [10],−3.39
same,plasma leptin level at week 12 compared to the reference value,leptin; [10],reduced to a statistically significant level
same,"Plasma leptin level, Average",leptin; [11],12.93
same,"Plasma leptin level, Average",leptin; [12],10.59
same,side effects (evaluation of safety),[4],mild and moderate side effects that are not related to the CHP were observed
